≈ marks a conversion by molar mass, not a printed value. Where “and” joins values, the source holds several entries; their conditions need not be identical. Equal values may be shown once. Read-outs that look alike come from different tables or passages of the source. Where a SMILES comes first, the peptide text is derived from it. [ ]: non-standard residue; d: D form. NMeTrp(1-Me) = CN[C@@H](Cc1cn(C)c2ccccc12)C(=O)O; NMeLeu(5-OH,4R) = CN[C@@H](C[C@@H](C)CO)C(=O)O; Phe(βR-OMe) = CO[C@H](c1ccccc1)[C@H](N)C(=O)O; NMeL = CN[C@@H](CC(C)C)C(=O)O; Pra = C#CC[C@H](N)C(=O)O
Assays:
[1] = target: ClpC1 NTD protein (M. tuberculosis) (Mycobacterium tuberculosis, UniProt P9WPC9); assay: biochemical; format: binding
[2] = Hepatocyte stability, mice; format: in vitro ADME
Summary of the method: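 Cryopreserved mouse hepatocytes (about 1 million cells/mL, pH 7.4, 50% species serum) incubated with 1 µM compound, DMSO <0.05%, at 37 °C for up to 6 h, sampled at 6 time points. Parent remaining measured by HPLC-MS/MS; half-life converted via well-stirred liver model to clearance as % Qh.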

[3] = format: in vitro ADME, Rat
Procedure: (§1) The kinetics of compound degradation in liver microsomes is assessed in an assay with 1 µmol/l of compound and 0.5 mg/ml liver microsomes in a medium of 100 mM Tris-HCl pH 7.5, 6.5 mM MgCl2 and 1 mM NADPH at 37 °C. The reaction is stopped at multiple time points by adding acetonitrile. After centrifugation, the compound concentration is measured in the supernatants by high-performance liquid chromatography (HPLC) tandem mass spectrometry (MS/MS). The results are fitted to a first-order decay and the half-lives are converted to clearance (stated as % of the liver blood flow (%Qh)) using the well-stirred liver model.

[4] = format: in vitro ADME, Rat; remark: listed apart in the source
[5] = system: Msm 700084; assay: microbe, parasite or virus in culture; format: cell-based
[6] = system: Msm 607; assay: microbe, parasite or virus in culture; format: cell-based
[7] = format: in vitro ADME, Human
[8] = system: M. tuberculosis H37Rv (ATCC 27294); assay: microbe, parasite or virus in culture; format: cell-based
[9] = system: Caco-2 monolayers; assay: in vitro; conditions: Caco-2
Summary of the method: (§2)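 Permeability across Caco-2 monolayers was measured in both directions, apical-to-basolateral and basolateral-to-apical, in 10^-6 cm s-1. Efflux ratio = P(B−A)/P(A−B). Intrinsic permeability is the mean of P(A−B) and P(B−A).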

[10] = in vitro; conditions: human
Summary of the method: as §2

[11] = format: in vitro ADME, Mice
Procedure: as §1

[12] = Microsomal stability, human; format: in vitro ADME
Procedure: as §1

[13] = target: His6-tagged ClpC1-NTD substrate, M. smegmatis ClpC1P1P2 (UniProt A0R574+P9WPC9); assay: biochemical; format: biochemical
[14] = target: ClpC1-NTD substrate, M. tuberculosis ClpC1P1P2 (Mycobacterium tuberculosis, UniProt P9WPC9); assay: biochemical; format: biochemical
[15] = read-out: DC50, single measurements

Sequence of ClpC1-NTD substrate, M. tuberculosis ClpC1P1P2 (P9WPC5 whole entry): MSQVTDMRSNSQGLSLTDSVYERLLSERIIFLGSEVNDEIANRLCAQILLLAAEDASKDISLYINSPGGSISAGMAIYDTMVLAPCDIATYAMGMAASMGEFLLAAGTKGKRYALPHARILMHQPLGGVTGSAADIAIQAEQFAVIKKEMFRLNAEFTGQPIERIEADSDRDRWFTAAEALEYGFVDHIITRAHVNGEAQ
Sequence of ClpC1-NTD substrate, M. tuberculosis ClpC1P1P2 (P9WPC9 whole entry): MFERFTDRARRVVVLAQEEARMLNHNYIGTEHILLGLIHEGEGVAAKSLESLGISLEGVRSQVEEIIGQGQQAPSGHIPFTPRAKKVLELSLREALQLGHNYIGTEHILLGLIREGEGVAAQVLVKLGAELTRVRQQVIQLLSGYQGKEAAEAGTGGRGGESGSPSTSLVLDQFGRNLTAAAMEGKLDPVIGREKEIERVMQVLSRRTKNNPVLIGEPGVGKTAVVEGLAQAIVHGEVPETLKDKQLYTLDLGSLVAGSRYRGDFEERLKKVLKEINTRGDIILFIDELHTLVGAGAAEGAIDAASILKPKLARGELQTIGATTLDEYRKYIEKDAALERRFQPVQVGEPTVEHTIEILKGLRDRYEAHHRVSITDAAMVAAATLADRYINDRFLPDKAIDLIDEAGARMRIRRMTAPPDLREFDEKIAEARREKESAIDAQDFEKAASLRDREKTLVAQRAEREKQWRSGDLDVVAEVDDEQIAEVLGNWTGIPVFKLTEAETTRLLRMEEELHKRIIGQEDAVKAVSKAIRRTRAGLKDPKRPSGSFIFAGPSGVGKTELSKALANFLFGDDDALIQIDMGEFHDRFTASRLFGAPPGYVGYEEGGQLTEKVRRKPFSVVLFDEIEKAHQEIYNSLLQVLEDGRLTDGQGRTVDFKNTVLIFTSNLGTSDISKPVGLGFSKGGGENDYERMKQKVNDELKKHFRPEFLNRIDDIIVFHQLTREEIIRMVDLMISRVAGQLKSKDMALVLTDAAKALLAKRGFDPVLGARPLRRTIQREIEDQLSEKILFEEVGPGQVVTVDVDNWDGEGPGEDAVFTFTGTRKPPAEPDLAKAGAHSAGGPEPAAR
Sequence of ClpC1-NTD substrate, M. tuberculosis ClpC1P1P2 (P9WPC3 whole entry, further chain): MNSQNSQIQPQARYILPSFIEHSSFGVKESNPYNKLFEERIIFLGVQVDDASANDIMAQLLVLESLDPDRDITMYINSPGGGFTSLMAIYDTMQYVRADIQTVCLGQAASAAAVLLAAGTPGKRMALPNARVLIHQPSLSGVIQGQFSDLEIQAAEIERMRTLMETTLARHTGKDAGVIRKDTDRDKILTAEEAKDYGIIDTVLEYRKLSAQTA
Sequence of His6-tagged ClpC1-NTD substrate, M. smegmatis ClpC1P1P2 (P9WPC9 1-156, looked up, natural form): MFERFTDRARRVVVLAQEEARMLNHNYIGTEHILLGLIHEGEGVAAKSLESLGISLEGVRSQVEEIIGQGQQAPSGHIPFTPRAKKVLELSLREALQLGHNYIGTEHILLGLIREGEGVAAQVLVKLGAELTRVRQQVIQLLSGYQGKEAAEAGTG
Sequence of His6-tagged ClpC1-NTD substrate, M. smegmatis ClpC1P1P2 (A0R574 whole entry): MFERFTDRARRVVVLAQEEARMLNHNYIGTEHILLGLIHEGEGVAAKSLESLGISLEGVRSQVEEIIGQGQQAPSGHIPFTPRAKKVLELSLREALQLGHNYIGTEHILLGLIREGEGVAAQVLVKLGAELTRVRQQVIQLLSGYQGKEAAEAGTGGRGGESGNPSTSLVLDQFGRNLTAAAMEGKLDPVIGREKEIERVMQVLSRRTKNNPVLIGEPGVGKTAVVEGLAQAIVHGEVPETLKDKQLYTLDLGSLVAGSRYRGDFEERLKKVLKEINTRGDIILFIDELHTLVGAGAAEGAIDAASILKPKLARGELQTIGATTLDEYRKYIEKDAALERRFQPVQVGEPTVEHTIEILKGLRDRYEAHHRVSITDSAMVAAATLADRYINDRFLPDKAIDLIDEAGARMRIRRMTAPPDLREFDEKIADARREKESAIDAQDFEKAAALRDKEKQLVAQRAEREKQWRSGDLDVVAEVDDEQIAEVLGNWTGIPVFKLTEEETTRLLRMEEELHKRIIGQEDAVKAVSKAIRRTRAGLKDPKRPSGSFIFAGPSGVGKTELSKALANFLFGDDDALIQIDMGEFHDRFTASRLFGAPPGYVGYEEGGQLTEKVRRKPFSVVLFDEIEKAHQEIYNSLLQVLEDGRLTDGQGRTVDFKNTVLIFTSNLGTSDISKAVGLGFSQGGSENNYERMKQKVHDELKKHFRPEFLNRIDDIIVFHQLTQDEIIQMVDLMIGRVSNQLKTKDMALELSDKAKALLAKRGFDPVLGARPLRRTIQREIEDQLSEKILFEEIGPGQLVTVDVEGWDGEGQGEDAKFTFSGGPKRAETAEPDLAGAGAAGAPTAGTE
Sequence of ClpC1 NTD protein (M. tuberculosis) (P9WPC9 1-156, looked up, natural form): as the sequence (P9WPC9 1-156, looked up, natural form) above

SMILES: C#CC[C@@H]1NC(=O)[C@H](CC(C)C)N(C)C(=O)[C@H](C(C)C)NC(=O)[C@H]([C@H](OC)c2ccccc2)NC(=O)[C@H](C)NC(=O)[C@H](C[C@@H](C)CO)N(C)C(=O)[C@H](Cc2cn(C)c3ccccc23)N(C)C1=O [Compound 20] (cyclo(A[Phe(βR-OMe)]V[NMeL][Pra][NMeTrp(1-Me)][NMeLeu(5-OH,4R)]))
- Kd ([1]; SPR, individual measurements (source data), read-out: KD ClpC1-NTD): 0.0141 µM and 0.0137 µM
- Kd ([1]; SPR, read-out: ClpC1-NTD KD Mean ± SD): 0.0139 ± 0.0003 µM
- Hepatocyte Mice ([2]; mouse, pH 7.4): 59 %Qh
- Hepatocyte Stability Mouse QH ([2]; mouse, pH 7.4): 58.928%
- Microsomal Stability Rat QH ([3]; Rat): >87.900%
- Microsomal Stability Rat ([3]; clearance in microsomes): > 88 %Qh
- Hepatocyte Rat ([4]; rat, pH 7.4): 63 %Qh
- Hepatocyte Stability Rat QH ([4]; rat, pH 7.4): 63.002%
- MIC ([5]; Mycolicibacterium smegmatis, 700084, single determinations, read-out: Msm 700084 MIC): > 50 µM
- MIC ([5]; Mycolicibacterium smegmatis, 700084, read-out: MIC Msm 700084): > 50 µM
- MIC ([6]; Mycolicibacterium smegmatis, 607, read-out: MIC Msm 607): 25 µM (≈ 23.2 µg/mL)
- MIC ([6]; Mycolicibacterium smegmatis, 607, read-out: Msm 607 MIC, single determinations): 25 µM (≈ 23.2 µg/mL)
- Hepatocyte Human ([7]; human, pH 7.4): 34 %Qh
- Hepatocyte Stability Human QH ([7]; human, pH 7.4): 34.158%
- MIC ([8]; Mycobacterium tuberculosis, M. tuberculosis H37Rv strain, read-out: MIC Mtb H37Rv Mean ± SD): 50 µM (≈ 46.4 µg/mL)
- MIC ([8]; Mycobacterium tuberculosis, Mtb H37Rv (Supplementary Table 2), read-out: MIC Mtb): 50 µM (≈ 46.4 µg/mL)
- MIC ([8]; Mycobacterium tuberculosis, individual measurements (source data), read-out: Mtb MIC): 50 µM (≈ 46.4 µg/mL)
- MIC ([8]; Mycobacterium tuberculosis, single determinations, read-out: Mtb MIC): 50 µM (≈ 46.4 µg/mL)
- MIC ([8]; individual measurements (source data), read-out: Mtb MIC): 50.000 µM (≈ 46.4 µg/mL)
- Caco-2 Int. Perm ([9]; human): 15.7
- Influence of N-methylation on permeability ([9]; human): >11.8
- Permeability Correlation P (A-B) ([9]; human): > 28
- efflux ratio ([10]; Caco-2): 11.8
- Papp A→B ([10]; Caco-2, CACO permeability PEAB): 20 nm/s
- Papp B→A ([10]; Caco-2, CACO permeability PEBA): 360 nm/s
- Papp A→B ([10]; Caco-2, Caco-2 permeability P (A-B)): 28 nm/s
- Papp B→A ([10]; Caco-2, Caco-2 permeability P (B-A)): 285 nm/s
- Microsomal Stability Mouse QH ([11]; Mouse): >88.400%
- Microsomal Stability Mice ([11]; clearance in microsomes): > 88 %Qh
- Microsomal Stability Human QH [12]: >88.400%
- Microsomal Stability Human ([12]; clearance in microsomes): > 88 %Qh

SMILES: COC(c1ccc(OCc2cn(CCOCCOCCOCCOCCn3cc(COc4ccc(C(OC)C5NC(=O)C(C)NC(=O)C(CC(C)CO)N(C)C(=O)C(Cc6cn(C)c7ccccc67)NC(=O)C(C(C)C)NC(=O)C(CC(C)C)N(C)C(=O)C(C(C)C)NC5=O)cc4)nn3)nn2)cc1)C1NC(=O)C(C)NC(=O)C(CC(C)CO)N(C)C(=O)C(Cc2cn(C)c3ccccc23)NC(=O)C(C(C)C)NC(=O)C(CC(C)C)N(C)C(=O)C(C(C)C)NC1=O (stereo not drawn) [SI-39]
- koff ClpC1-NTD [1]: 1E-3 7E-4 1/s
- Kd ([1]; read-out: KD ClpC1-NTD): 0.000477 µM and 0.000422 µM
- Kd ([1]; read-out: KD ClpC1-NTD Mean ± SD): 0.00045 ± 4e-05 µM
- Hepatocyte Mice ([2]; clearance in hepatocytes): 15 %Qh
- Hepatocyte Rat [4]: 6 %Qh
- Hepatocyte Stability Rat QH [4]: 6.192%
- MIC ([5]; single determinations, read-out: Msm 700084 MIC): 12.500 µM (≈ 27.9 µg/mL)
- Msm 607 MIC ([6]; single determinations): 12.500 µM
- Hepatocyte Human [7]: 12 %Qh
- Hepatocyte Stability Human QH [7]: 12.386%
- MIC ([8]; Mtb H37Rv (Supplementary Table 2), read-out: MIC Mtb): 0.2 µM (≈ 0.446 µg/mL)
- MIC ([8]; single determinations, read-out: Mtb MIC): 0.195 µM (≈ 0.435 µg/mL)
- CACO permeability PEAB [9]: <0.000 cm/sec
- CACO permeability PEBA [9]: <0.000 cm/sec
- Caco-2 Int. Perm [9]: 2.9 10-6 cm s-1
- Caco-2 permeability P (A-B) [9]: < 4.1 10-6 cm s-1
- Caco-2 permeability P (B-A) [9]: < 1.7 10-6 cm s-1
- 1-Dmax, Mean [13]: 88%
- 1-Dmax, single measurements [13]: 79.0% and 91.3% and 94.4%
- DC50 ([13]; read-out: DC50, Mean): 5.8 µM
- DC50 [13, 15]: 6.5 µM and 5.3 µM and 5.6 µM
- 1-Dmax, Mean [14]: 73%
- 1-Dmax, single measurements [14]: 79.7% and 65.9% and 73.8%
- DC50 ([14]; read-out: DC50, Mean): 7.7 µM
- DC50 [14, 15]: 8.5 µM and 5.9 µM and 8.7 µM
- Microsomal Stability Human QH [12]: 39.3%

From paper PMC10914731, “Homo-BacPROTAC-induced degradation of ClpC1 as a strategy against drug-resistant mycobacteria” (Nature Communications, 2024)
